Measured values: US20250381269A1, “BISPECIFIC ANTIBODY BINDING EGFR AND B7-H3” (FORTVITA BIOLOGICS (SINGAPORE) PTE. LTD., priority 2022, published 2025)

Legend:
[1] = test system: H1650; experiment: Proliferation inhibition experiment, H1650 (NSCLC); format: cell-based; details: EGFR Amplification Del19, KRAS WT
Protocol: • (1) NSCLC: plated at 1500-2500 cells/100 μL in a 96-well low-adsorption plate (Corning, CLS7007-24EA) for 3D cell culture, in which the following cell lines and specific amounts were used: • NSCLC: 2000 cells/100 μL/well • NCI-H292: Cell Bank of the Chinese Academy of Sciences, SCSP-582 • NCI-H322: Cobioer, CBP60134 • NCI-H1650: ATCC, CRL-5883 • NCI-H1975: ATCC, CRL-5908 • SK-MES-1: CoBioer, CBP60152 • NCI-H1703: ATCC, HTB-43 • PC9+hB7H3: constructed as described above • CRC and HNSCC: plated at 1500-2000 cells/100 μL in a 96-well white-bottom plate (NUNC, 136101) for 2D cell culture, in which the following cell lines and specific amounts were used: • CRC: 1500 cells/100 μL/well • CCK-81: CoBioer, CBP60581 • HT-55: CoBioer, CBP60012 • H508: CoBioer, CBP60795 • LS180: CoBioer, CBP60034 • HNSCC: 1500 cells/100 μL/well • TE-1: CoBioer, CBP60655 • Colo680: CoBioer, CBP60452. (2) The antibody molecules prepared in advance by dilution were added to the corresponding cell well plate, mixed well, and cultured in an incubator at 37° C. with 5% CO2 for 5 days. • (3) After 5 days of continuous culture for proliferation inhibition assay, the Cell-Titer reagent (Promega, G7572) prepared in advance was added to cell wells, the plate was left to stand at room temperature for 15-25 min in the dark, and then CRC and HNSCC cells were directly detected by a multimode microplate reader (Molecular Devices, Spectra MAXi3). • (4) NSCLC: Cell-Titer and the cell mixture were transferred to a 96-well white-bottom plate (NUNC, 136101) and detected by a multimode microplate reader (Molecular Devices, Spectra MAXi3).

[2] = test system: H1650; experiment: ADCC report assay, H1650; format: cell-based; details: EGFR Amplification Del19, KRAS WT, effector/target 10:1, 20 h
Protocol: In the ADCC report assay, ADCC effector cells ((Promega, G7102)) are engineered cells in which FcRIIIa (V158) receptor is overexpressed into Jurkat T cells, which rapidly respond to ADCC through the NFAT-RE driving element within the Jurkat T cells.
• (1) Tumor cells (cell lines listed in Table 3) and ADCC effector cells (Promega, G7102) were mixed well (1.5E4 cells: 1.5E5 cells/well/100 μL (1.5E5: 1.5E6 cells/mL)) according to an effector/target ratio (10:1), and added to a 96-well white plate (NUNC, 136101). • (2) The antibody molecules prepared in advance by dilution were added to the corresponding cell well plates, mixed well, and cultured at 37° C. with 5% CO2 for 20 h. • (3) The Bio-glo reagent (Promega, G755B) prepared in advance was added to the cell well plate, the plate was left to stand at room temperature for 10-15 min in the dark, and then the cells were detected by a multimode microplate reader (Molecular Devices, Spectra MAXi3).

[3] = test system: NCI-H292 tumor-bearing mice; experiment: Anti-tumor efficacy in NCI-H292 tumor-bearing mice; format: in vivo; details: NCI-H292, Balb/c Nude mice, 5 mg/kg i.p. Q3-4D x4; for Tumor volume (mm^3): day not printed in column (TGI based on day 22); for Complete response rate @ Day 59: tumor volume of 0, 5 mice per group; for Tumor growth inhibition (%) @ Day 22: vs h-IgG 5 mg/kg
From the text: SPF female Balb/c Nude mice (purchased from Beijing Vital River Laboratory Animal Technology Co., Ltd.) with certificate No. 110011211108430747 were used in the experiment.
NCI-H292 cells were routinely subcultured for the subsequent in-vivo experiment. The cells were collected by centrifugation. Then the NCI-H292 cells were resuspended in an equal-proportion mixture of PBS (1×) and Matrigel Matrix (Corning) to prepare a cell suspension with a cell concentration of 20×10^6 cells/mL. On day 0. 0.2 mL of the cell suspension was taken and subcutaneously inoculated to the right abdominal area of Balb/c Nude mice to establish NCI-H292 tumor-bearing mouse models.
Four days after the tumor cell inoculation, the tumor volume in each mouse was measured. The mice were grouped (with 5 mice in each group).
h-IgG. […] Administration was performed on days 4, 8, 12, and 15 after the inoculation of NCI-H292 cells. Mice were monitored for tumor volume and body weight twice a week. […] Since death of mice due to tumors occurred earlier in some groups, relative tumor growth inhibition (TG1%) was calculated based on the tumor volume on day 22 after the inoculation by the following formula:
TG1%=100%×(control group tumor volume−treatment group tumor volume)/(control group tumor volume−control group tumor volume before administration).
Tumor volume measurement: The maximum length of major axis (L) and maximum length of minor axis (W) of tumors were measured with a vernier caliper, and tumor volume was calculated by the following formula: V=L×W^2/2.
The mice were weighed using an electronic balance. Mice with tumor volumes above 2000 mm3 or weight loss above 20% were euthanized.

[4] = test system: LS180; experiment: Proliferation inhibition experiment, LS180 (CRC); format: cell-based; details: EGFR R521K, KRAS G12D
Protocol: • (1) NSCLC: plated at 1500-2500 cells/100 μL in a 96-well low-adsorption plate (Corning, CLS7007-24EA) for 3D cell culture, in which the following cell lines and specific amounts were used: • NSCLC: 2000 cells/100 μL/well • NCI-H292: Cell Bank of the Chinese Academy of Sciences, SCSP-582 • NCI-H322: Cobioer, CBP60134 • NCI-H1650: ATCC, CRL-5883 • NCI-H1975: ATCC, CRL-5908 • SK-MES-1: CoBioer, CBP60152 • NCI-H1703: ATCC, HTB-43 • PC9+hB7H3: constructed as described above • CRC and HNSCC: plated at 1500-2000 cells/100 μL in a 96-well white-bottom plate (NUNC, 136101) for 2D cell culture, in which the following cell lines and specific amounts were used: • CRC: 1500 cells/100 μL/well • CCK-81: CoBioer, CBP60581 • HT-55: CoBioer, CBP60012 • H508: CoBioer, CBP60795 • LS180: CoBioer, CBP60034 • HNSCC: 1500 cells/100 μL/well • TE-1: CoBioer, CBP60655 • Colo680: CoBioer, CBP60452. […]

[5] = test system: H1703; format: cell-based, human; details: EGFR Amplification, KRAS WT, huPBMC:target 50:1, 8 h, LDH
Protocol: • (1) A CTS medium (Gibco, A3021002) was preheated at 37° C. huPBMC (Miaotong Biotechnology, PB 100C-W) was quickly thawed in a water bath, and then the cells were added slowly to 8 mL of CTS medium (containing 1% DNase). • (2) The mixture was centrifuged at 300 g for 8 min. The supernatant was removed, and the cells were resuspended in 30 mL of CTS (containing 10 μL of DNase), transferred to a T75 flask, and incubated in an incubator at 37° C. overnight. • (3) The suspension cells cultured overnight were taken and centrifuged at 300 g for 8 min. The supernatant was removed, and the cell density was adjusted with CTS. According to an effector/target ratio of effector cells (huPBMCs) to target cells (tumor cells in Table 5) of 50:1, huPBMCs and the tumor cells prepared in advance (Target: huPBMC=1.5E4/7.5E5 cells/well/100 μL) were plated in a 96-well low-adsorption plate (Corning. CLS7007-24EA). • (4) The diluted antibody drug was added to the corresponding cell well plate and cultured at 37° C. with 5% CO2 for 8 h. • (5) The mixture was centrifuged at 300 g for 5 min. 50 μL of the supernatant was transferred to a 96-well transparent flat-bottom plate ((NUNC, 136101), 50 μL of the LDH reagent (Promega, G1780) prepared in advance was added to the corresponding well plate, and the plate was left to stand at room temperature for 15-30 min in the dark. • (6) 50 μL LDH stop solution (Promega, G1780) was taken and detected by a multimode microplate reader (Molecular Devices, Spectra MAXi3) at 490 nm for readings.

amivantamab [JNJ372]
Max inhibition (%) Mean ± SD [1]: 31.0 ± 1.4% | IC50 ([1]; 3D culture, 5 days): 20.6 nM | EC50 [2]: 0.102 nM | Tumor volume (mm^3) [3]: 177 mm^3 | Complete response rate @ Day 59 [3]: 0/5 | Tumor growth inhibition (%) @ Day 22 [3]: 100%

zalutumumab [Zalu mAb]
Max inhibition (%) Mean ± SD [4]: 41.0 ± 2.2% | Max inhibition (%) Mean ± SD [1]: 26.8 ± 2.6% | EC50 [2]: 0.021 nM | EC50 [5]: 0.007 nM | Tumor volume (mm^3) [3]: 96 mm^3 | Complete response rate @ Day 59 [3]: 1/5 | Tumor growth inhibition (%) @ Day 22 [3]: 107%
